Results on 40 molecules are retold here after patent US20250101011A1, “PEPTIDYL NITRILE COMPOUND AND USE THEREOF” (SHANGHAI YIDIAN PHARMACEUTICAL TECHNOLOGY DEVELOPMENT CO., …, priority 2022, published 2025).

One assay addresses rhCathepsin C/DPP1 (Homo sapiens (Human), UniProt P53634). Kind of assay: Test for inhibition of DPP1 enzyme activity. It counts as biochemical. The conditions noted are these: recombinant human cathepsin C/DPP1; substrate Gly-Arg-AMC. On the procedure:
Recombinant human cathepsin, rhCathepsin C/DPP1, purchased from R&D systems
Gly-Arg-AMC (hydrOCHloride), purchased from Cayman chemical
• 1) Preparation and handling of compounds: Accurately weigh the compound and dissolve it in […] of DMSO to prepare a […] of the bulk, which is further diluted as required. • 2) Screening test: Dilute recombinant human cathepsin rhCathepsin C/DPP1 and recombinant human cathepsin rhCathepsin L with an activating buffer solution, and incubate at 37° C. for 60 min. Add 4 μL of test compound to the white well of the 384-well plate. Add 4 μL of the enzyme mixture after incubation to the white wells. Block the 384-well plate and allow to stand at room temperature for 30 min, and add 8 μL of 2-fold diluted Gly-Arg-AMC (hydrochloride). Block the 384-well plate and allow to stand at room temperature for 2 h. Prepare 4× stop solution and add 4 μL stop solution to white wells. Read fluorescence data on the fluorescence meter Victor Nivo35. • 3) Data analysis:
[…] using Prism Graphpad 8.0.

The next assay has as its target DPP1 (Homo sapiens (Human), UniProt P53634). The assay can be described thus: DPP1 activity inhibition test on U937 cells. It counts as cell-based. The conditions noted are these: substrate h-Gly-phe-AFC; for inhibition at 0.005 µM: U-937, 5 nM compound; for inhibition at 0.05 µM: U-937, 50 nM compound; for pIC50: intracellular enzyme activity. On the procedure:
After incubation at 37° C. for 1 h, add h-Gly-phe-AFC (10 μL) to each well and start reaction.

pIC50: −log10 of the molar value.

Chain of rhCathepsin C/DPP1 (P53634 25-134): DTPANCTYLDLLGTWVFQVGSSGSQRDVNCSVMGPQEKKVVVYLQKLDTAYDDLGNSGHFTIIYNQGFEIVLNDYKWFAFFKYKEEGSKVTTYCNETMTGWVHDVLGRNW
Chain of rhCathepsin C/DPP1 (P53634 231-394): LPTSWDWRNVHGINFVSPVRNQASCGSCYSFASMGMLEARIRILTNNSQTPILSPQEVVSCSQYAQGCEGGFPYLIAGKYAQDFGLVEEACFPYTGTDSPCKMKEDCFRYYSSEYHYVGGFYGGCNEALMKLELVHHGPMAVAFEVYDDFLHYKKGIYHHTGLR
Chain of rhCathepsin C/DPP1 (P53634 395-463): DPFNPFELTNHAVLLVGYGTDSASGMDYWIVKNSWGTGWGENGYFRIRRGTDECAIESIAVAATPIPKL
Chain of DPP1 (P53634 25-463): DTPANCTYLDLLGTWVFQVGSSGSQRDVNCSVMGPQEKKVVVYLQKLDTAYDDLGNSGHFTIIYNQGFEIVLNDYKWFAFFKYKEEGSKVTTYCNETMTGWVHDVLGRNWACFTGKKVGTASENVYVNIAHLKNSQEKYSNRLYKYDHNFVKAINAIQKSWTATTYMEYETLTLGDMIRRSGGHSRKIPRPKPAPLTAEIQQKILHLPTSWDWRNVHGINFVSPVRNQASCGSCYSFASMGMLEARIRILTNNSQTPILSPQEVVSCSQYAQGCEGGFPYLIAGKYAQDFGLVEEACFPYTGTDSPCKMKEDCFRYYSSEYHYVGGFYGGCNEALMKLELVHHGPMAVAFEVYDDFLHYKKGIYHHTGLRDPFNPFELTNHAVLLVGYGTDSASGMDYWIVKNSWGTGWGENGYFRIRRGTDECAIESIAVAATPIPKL

In the case of `N#C[C@H](Cc1ccc(-c2ccc3oc(=O)n(CF)c3c2)cc1)NC(=O)[C@@H]1CNCCCO1` [Compound D02], the pIC50 at rhCathepsin C/DPP1 is 8.39. At DPP1, this molecule showed an inhibition at 0.005 µM of 30 to 75%, an inhibition at 0.05 µM of 75 to 100% and a pIC50 of 8.24.
On the same counts, the results for `N#C[C@H](Cc1ccc(-c2ccc3oc(=O)n(C(F)F)c3c2)cc1)NC(=O)[C@@H]1CNCCCO1` [Compound D04] are 8.41, 30 to 75%, 75 to 100% and 8.28.
For `N#C[C@H](Cc1ccc(-c2ccc3c(c2)CCC3=O)cc1)NC(=O)[C@@H]1CNCCCO1` [Compound D09], the pIC50 at rhCathepsin C/DPP1 was 8.27. On DPP1, this molecule gave an inhibition at 0.005 µM of 30 to 75%, an inhibition at 0.05 µM of 75 to 100% and a pIC50 of 8.00.
On to `CN1CC2(C1)OC(=O)c1ccc(-c3ccc(C[C@@H](C#N)NC(=O)[C@@H]4CNCCCO4)cc3)cc12` [Compound D19], for which, on rhCathepsin C/DPP1, the pIC50 was 8.46. Besides, on DPP1, the inhibition at 0.005 µM was 30 to 75%, the inhibition at 0.05 µM lay within 75 to 100% and the pIC50 was 7.39.
As to `CN1CC2(C1)OCc1ccc(-c3ccc(C[C@@H](C#N)NC(=O)[C@@H]4CNCCCO4)cc3)cc12` [Compound D20], at rhCathepsin C/DPP1, the pIC50 was 8.44. At DPP1, the inhibition at 0.005 µM was in the range of 30 to 75%, the inhibition at 0.05 µM was in the range of 75 to 100% and the pIC50 was 7.46.
The corresponding values for `N#C[C@H](Cc1ccc(-c2ccc3c(c2)C2(COC2)OC3=O)cc1)NC(=O)[C@@H]1CNCCCO1` [Compound D21] are 8.10, 30 to 75%, 75 to 100% and 7.54.
On the same counts, the results for `N#C[C@H](Cc1ccc(-c2ccc3c(c2)C2(CCN(C4COC4)CC2)OC3)cc1)NC(=O)[C@@H]1CNCCCO1` [Compound D26] are 8.51, 30 to 75%, 75 to 100% and 7.80.
With `N#C[C@H](Cc1ccc(-c2ccc3c(c2)COC3=O)cc1)NC(=O)[C@@H]1CNCCCO1` [Compound D44], at rhCathepsin C/DPP1, the pIC50 is 8.28. On DPP1, this molecule showed an inhibition at 0.005 µM of 30 to 75%, an inhibition at 0.05 µM of 75 to 100% and a pIC50 of 7.85.
For the molecule `Cn1c(=O)oc2ccc(-c3ccc(C[C@@H](C#N)NC(=O)[C@@H]4CNCC5(CC5)CO4)c(F)c3)cc21` [Compound D46], at rhCathepsin C/DPP1, the pIC50 is 9.35. At DPP1, this molecule had an inhibition at 0.005 µM of 30 to 75%, an inhibition at 0.05 µM of 75 to 100% and a pIC50 of 8.52.
With `N#C[C@H](Cc1ccc(-c2ccc3c(c2)C2(CN(C4COC4)C2)OC3)cc1F)NC(=O)[C@@H]1CNCCCO1` [Compound D57], on rhCathepsin C/DPP1, the pIC50 is 8.66. Further, at DPP1, the inhibition at 0.005 µM fell in the range of 30 to 75%, the inhibition at 0.05 µM lay in the range of 75 to 100% and the pIC50 is 8.00.
Take `N#C[C@H](Cc1ccc(-c2ccc3c(c2)CCC3=O)cc1F)NC(=O)[C@@H]1CNCCCO1` [Compound D60]: the pIC50 on rhCathepsin C/DPP1 was 8.43. Also, at DPP1, the inhibition at 0.005 µM is 30 to 75%, the inhibition at 0.05 µM lay in the range of 75 to 100% and the pIC50 was 8.34.
On the same counts, the results for `N#C[C@H](Cc1ccc(-c2ccc3c(c2)COC3=O)cc1F)NC(=O)[C@@H]1CNCCCO1` [Compound D61] are 8.60, 30 to 75%, 75 to 100% and 8.28.
On to `N#C[C@H](Cc1ccc(-c2ccc3c(c2)C=CC32CCN(C3COC3)CC2)cc1F)NC(=O)[C@@H]1CNCCCO1` [Compound D93], for which, at DPP1, the inhibition at 0.005 µM lay in the range of 30 to 75%, the inhibition at 0.05 µM lay within 75 to 100% and the pIC50 was 7.80.
At DPP1, `N#C[C@H](Cc1ccc(-c2ccc3oc(=O)n(CC4COC4)c3c2)cc1F)NC(=O)[C@@H]1CNCCCO1` [Compound D94] gave an inhibition at 0.005 µM below 30% and an inhibition at 0.05 µM below 30%.
For the molecule `N#C[C@H](Cc1ccc(-c2ccc3oc(=O)n(CC4CCO4)c3c2)cc1F)NC(=O)[C@@H]1CNCCCO1` (stereo partly shown) [Compound D95], on DPP1, the inhibition at 0.005 µM was below 30%, the inhibition at 0.05 µM was 75 to 100% and the pIC50 is 7.77.
At DPP1, `CN1CC(Cn2c(=O)oc3ccc(-c4ccc(C[C@@H](C#N)NC(=O)[C@@H]5CNCCCO5)c(F)c4)cc32)C1` [Compound D96] had a pIC50 of 6.44.
`CN1CCC1Cn1c(=O)oc2ccc(-c3ccc(C[C@@H](C#N)NC(=O)[C@@H]4CNCCCO4)c(F)c3)cc21` (stereo partly shown) [Compound D97] showed a pIC50 against DPP1 of 6.96.
At DPP1, `Cn1c(=O)oc2ccc(-c3ccc(C[C@@H](C#N)NC(=O)[C@@H]4CNCC5(COC5)CO4)c(F)c3)cc21` [Compound D98] had an inhibition at 0.005 µM below 30% and an inhibition at 0.05 µM below 30%.
At DPP1, `N#C[C@H](Cc1ccc(-c2ccc3oc(=O)n(C4COC4)c3c2)cc1F)NC(=O)[C@@H]1CNCCCO1` [Compound D99] had an inhibition at 0.005 µM below 30% and an inhibition at 0.05 µM of 30 to 75%.
At DPP1, `CN1CCC(n2c(=O)oc3ccc(-c4ccc(C[C@@H](C#N)NC(=O)[C@@H]5CNCCCO5)c(F)c4)cc32)C(F)(F)C1` (stereo partly shown) [Compound D100] yielded an inhibition at 0.005 µM below 30% and an inhibition at 0.05 µM of 30 to 75%.
For `CN1CC2(C1)OC(=O)c1ccc(-c3ccc(C[C@@H](C#N)NC(=O)[C@@H]4CNCCCO4)c(F)c3)cc12` [Compound D102], on DPP1, the inhibition at 0.005 µM was below 30%, the inhibition at 0.05 µM fell in the range of 75 to 100% and the pIC50 was 7.88.
Regarding `CN1CC2(C1)OCc1ccc(-c3ccc(C[C@@H](C#N)NC(=O)[C@@H]4CNCCCO4)c(F)c3)cc12` [Compound D103], at DPP1, the inhibition at 0.005 µM fell in the range of 30 to 75%, the inhibition at 0.05 µM was in the range of 75 to 100% and the pIC50 was 7.91.
At DPP1, `CN1CCC2(CC1)OC(=O)c1ccc(-c3ccc(C[C@@H](C#N)NC(=O)[C@@H]4CNCCCO4)c(F)c3)cc12` [Compound D104] displayed an inhibition at 0.005 µM below 30% and an inhibition at 0.05 µM below 30%.
On DPP1, `CN1CCC2(CC1)OCc1ccc(-c3ccc(C[C@@H](C#N)NC(=O)[C@@H]4CNCCCO4)c(F)c3)cc12` [Compound D105] showed an inhibition at 0.005 µM below 30% and an inhibition at 0.05 µM below 30%.
At DPP1, `CN1CCC2(CC1)COc1ccc(-c3ccc(C[C@@H](C#N)NC(=O)[C@@H]4CNCCCO4)c(F)c3)cc12` [Compound D108] showed an inhibition at 0.005 µM below 30% and an inhibition at 0.05 µM of 75 to 100%.
At DPP1, `C[C@H]1CNC[C@@H](C(=O)N[C@H](C#N)Cc2ccc(-c3ccc4oc(=O)n(C)c4c3)cc2F)OC1` [Compound D109] had an inhibition at 0.005 µM of 30 to 75%, an inhibition at 0.05 µM of 75 to 100% and a pIC50 of 8.28.
On to `C[C@@H]1CNC[C@@H](C(=O)N[C@H](C#N)Cc2ccc(-c3ccc4oc(=O)n(C)c4c3)cc2F)OC1` [Compound D110], for which, on DPP1, the pIC50 was 8.37.
Consider `N#C[C@H](Cc1ccc(-c2ccc3c(n2)CCC3=O)cc1F)NC(=O)[C@@H]1CNCCCO1` [Compound D111], for which, at DPP1, the inhibition at 0.005 µM was below 30%, the inhibition at 0.05 µM lay within 75 to 100% and the pIC50 is 7.48.
At DPP1, `N#C[C@H](Cc1ccc(-c2cc3c(cn2)C(=O)CC3)cc1F)NC(=O)[C@@H]1CNCCCO1` [Compound D112] gave an inhibition at 0.005 µM below 30% and an inhibition at 0.05 µM of 30 to 75%.
At DPP1, `N#C[C@H](Cc1ccc(-c2cnc3c(c2)CCC3=O)cc1F)NC(=O)[C@@H]1CNCCCO1` [Compound D113] gave an inhibition at 0.005 µM below 30% and an inhibition at 0.05 µM below 30%.
Molecule `Cn1ccc(=O)c2ccc(-c3ccc(C[C@@H](C#N)NC(=O)[C@@H]4CNCCCO4)c(F)c3)cc21` [Compound D114] had a pIC50 against DPP1 of 6.06.
The same measure, in the same setting: then `CN1CC2(Cc3cc(-c4ccc(C[C@@H](C#N)NC(=O)[C@@H]5CNCCCO5)c(F)c4)ccc3C2=O)C1` [Compound D115], with 7.53.
Take `N#C[C@H](Cc1ccc(-c2ccc3c(c2)CC2(CC2)C3=O)cc1F)NC(=O)[C@@H]1CNCCCO1` [Compound D116]: on DPP1, the inhibition at 0.005 µM is below 30% and the inhibition at 0.05 µM lay within 30 to 75%.
At DPP1, `CC1(C)Cc2cc(-c3ccc(C[C@@H](C#N)NC(=O)[C@@H]4CNCCCO4)c(F)c3)ccc2C1=O` [Compound D117] gave an inhibition at 0.005 µM of 30 to 75%, an inhibition at 0.05 µM of 75 to 100% and a pIC50 of 8.22.
`N#C[C@H](Cc1ccc(-c2ccc3c(c2)C2(COC2)OC3=O)cc1F)NC(=O)[C@@H]1CNCCCO1` [Compound D119]: the pIC50 on DPP1 was 8.21.
Take `N#C[C@H](Cc1ccc(-c2ccc3c(c2)CCC3=O)[se]1)NC(=O)[C@@H]1CNCCCO1` [Compound D121]: on DPP1, the pIC50 was 8.33.
The same measure, in the same setting: then `N#C[C@H](Cc1ccc(-c2ccc3c(c2)C2CC2C3=O)cc1F)NC(=O)[C@@H]1CNCCCO1` (stereo partly shown) [Compound D122], with 7.77.
Consider `C[C@H]1CNC[C@@H](C(=O)N[C@H](C#N)Cc2ccc(-c3ccc4c(c3)N(C)CCC4=O)cc2F)OC1` [Compound D124], for which the pIC50 on rhCathepsin C/DPP1 is 7.95.
`CN1CCC(=O)c2ccc(-c3ccc(C[C@@H](C#N)NC(=O)[C@@H]4CNCCCO4)cc3)cc21` [Compound D125]: the pIC50 on rhCathepsin C/DPP1 was 8.17.
On the same count and under the same terms, then `C[C@H]1OC(=O)c2ccc(-c3ccc(C[C@@H](C#N)NC(=O)[C@@H]4CNCCCO4)[se]3)cc21` [Compound D126], with 7.97.

A word on the pIC50: it is −log10 of the IC50, conventionally taken in molar units. One may read the inhibition as the share of the control response that was lost under treatment. A higher inhibition goes with a response far below the control.
